In US20130196900A1, “ENHANCEMENT OF INNATE RESISTANCE TO INFECTION” (priority 2007, published 2013):
“And” between values parts separate entries of the source, which are not always exact repeats. Identical values can stand only once. Like-named read-outs stand apart in the source and are kept apart here.

Assays:
[1] = system: C. burnetii (Phase II Nine Mile strain); format: cell-based; conditions: 96 hours
[2] = system: peritoneal cells; assay: Analysis of peritoneal cells after i.p. injection (FACS); format: in vivo, Balb/c mice; conditions: peritoneum, data not shown
[3] = system: Phase II C. burnetii; format: in vivo
[4] = system: C. burnetii; conditions: 24 hours
[5] = system: host macrophages; conditions: 24 hours
[6] = system: MonoMac-1 cells; assay: IL-8 assay in MonoMac-1 cells (ELISA); format: cell-based, human; conditions: securinine 25 μM vs carrier/buffer control
[7] = system: C. burnetii (Phase II Nine Mile strain); format: cell-based; conditions: 96 hours; remark: listed apart in the source
[8] = system: Phase II C. burnetii; format: cell-based; conditions: 96 hours
[9] = system: TLR-1 to 10; assay: TLR activation assay (THP1-Blue-CD14/SEAP); format: cell-based; conditions: securinine 50 or 25 μM, 24 hours
[10] = system: cathepsin D; format: cell-based, mouse
[11] = system: p38 map kinase; assay: p38 MAP kinase Western blot in Monomac-1 cells; format: cell-based, human; conditions: 50 μM securinine
[12] = concentrations as high as 10 mg/kg or greater i.p.; cited from earlier work

lipopolysaccharide [LPS]
C. burnetii content of infected cells [1]: less C. burnetii
neutrophil and macrophage activation: CD11b and Ly6C expression [2]: increased
benefit on C. burnetii infection in vivo ([3]; in vivo): No benefit
spleen C. burnetii numbers (PCR quantification of bacterial DNA) ([3]; in vivo, ip): did not have an effect

Pam3CGDPKHPKSF [FSL-1]
C. burnetii content of infected cells [1]: less C. burnetii
neutrophil and macrophage activation: CD11b and Ly6C expression [2]: increased
bacterial burden by PCR, lower than buffer alone ([3]; in vivo): > 10 fold
bacterial counts by PCR ([3]; in vivo): reduced bacterial counts
efficiency in inducing enhanced C. burnetii clearance, share of animals ([3]; in vivo): 61% and 100%
mice showing a reduction of C. burnetii ([3]; in vivo): 11 mice
mice with lower spleen weight and bacterial burden ([3]; in vivo): 5 out of 5
spleen weight ([3]; in vivo): significantly lower
splenomegaly (spleen weight) ([3]; in vivo): reduced the splenomegaly
total C. burnetii DNA from spleen and liver ([3]; in vivo): lower
viable bacterial counts in the spleen (bacLight FACS assay) ([3]; in vivo): enhanced clearance of C. burnetii
spleen C. burnetii numbers (PCR quantification of bacterial DNA) ([3]; in vivo, ip): reduced
direct killing of C. burnetii [4]: Neither of the compounds, at concentrations that induced killing in vitro and in vivo, induced direct killing
direct killing of host cells [5]: Neither of the compounds, at concentrations that induced killing in vitro and in vivo, induced direct killing

O=C1C=C2C=C[C@@H]3C[C@@]2(O1)[C@H]1CCCCN31 [securinine]
IL-8 secretion [6]: potent inducer of IL-8 secretion
C. burnetii killing [1]: induced killing of C. burnetii
C. burnetii killing [7]: induced killing of C. burnetii
percent C. burnetii killing [8]: > 80%
TLR-1 to 10 signaling (SEAP release) [9]: not detected
C. burnetii burden (viable bacterial counts) ([3]; 96 hr): significantly (P value <0.05) lower
spleen weights ([3]; 96 hr): significantly (P value <0.05) lower
reduction in C. burnetii, PCR assay for bacterial DNA ([3]; in vivo, ip): 10 fold
reduction in C. burnetii, viability assay ([3]; in vivo, ip): 10 fold
cathepsin D expression in infected macrophages [10]: induced cathepsin D expression
direct killing of C. burnetii [4]: Neither of the compounds, at concentrations that induced killing in vitro and in vivo, induced direct killing
p38Map kinase activity (phospho-p38) [11]: induces p38Map kinase activity
direct killing of host cells [5]: Neither of the compounds, at concentrations that induced killing in vitro and in vivo, induced direct killing
toxicity [12]: without any obvious toxicity
